Data: patent US12514908B2 (MAPI PHARMA LTD., priority 2021, dated 2026)
Where “and” joins values, the source holds several entries; their conditions need not be identical. Equal entries are not always repeated.

Experiments:
[1] = Example 5 plasma concentrations and pharmacokinetic parameters in male Gottingen minipigs; assay type: in vivo
Method: […] At each time point, ˜2.0 ml of blood was withdrawn and transferred into a prelabeled K2EDTA coated vacutainers and mixed gently by inverting the tube to facilitate mixing of anticoagulant with the blood. Blood samples were kept on gel packs until centrifugation. The collected blood samples were centrifuged at 4,000 rpm for 10 min at 4° C. Plasma was separated after centrifugation. All plasma samples were transferred into pre-labeled (Animal ID No., Time point, Study No., and Group) tubes and stored at −70±10° C. until analysis. Blood glucose levels were determined for all blood collection time points.
Bioanalysis was performed using fit-for-purpose liquid chromatography mass spectrometry (LC-MS/MS) method for the quantification of semaglutide in plasma samples. Linearity range was 1 to 204 ng/ml. Semaglutide were extracted from mini pigs plasma samples using solid phase extraction technique and quantified using LC-MS/MS with Electro Spray Ionization (ESI) and multiple reaction monitoring (MRM) in positive ionization mode.

[2] = Example 6 semaglutide plasma levels in db/db mice; assay type: in vivo; conditions: 0.02 mg/kg/day SC daily
Method: Naïve control, n=5 • 2. Vehicle (db/db mice) SC administered daily (dose-(vehicle) 1 ml/kg/day, for 42 days), n=10 • 3.
Body weight and food consumption were monitored daily. Ad-lib fed blood glucose levels were measured every third day. Fasted blood glucose levels were measured on Day-14, Day-28 and Day-42. Glycated hemoglobin (hbA1c) levels were measured on Day-0, Day-28, and Day-42.

in vivo = conditions: male, db/db, mouse, plasma, sc
[3] = Example 4 semaglutide plasma concentrations in db/db mice; conditions: for Plasma concentrations, individual animals: SC, Daily, listed as Semaglutide API
db/db mice = experiment: Example 4 death of an animal in db/db mice (Table 10B); assay type: in vivo; conditions: 0.4 mg/kg, SC, Daily, animal No. 3, after Day 7 (3 h), before Day 14

Q: Which results are given for `CC[C@H](C)[C@H](NC(=O)[C@H](Cc1ccccc1)NC(=O)[C@H](CCC(=O)O)NC(=O)[C@H](CCCCNC(=O)COCCOCCNC(=O)COCCOCCNC(=O)CC[C@H](NC(=O)CCCCCCCCCCCCCCCCC(=O)O)C(=O)O)NC(=O)[C@H](C)NC(=O)[C@H](C)NC(=O)[C@H](CCC(N)=O)NC(=O)CNC(=O)[C@H](CCC(=O)O)NC(=O)[C@H](CC(C)C)NC(=O)[C@H](Cc1ccc(O)cc1)NC(=O)[C@H](CO)NC(=O)[C@H](CO)NC(=O)[C@@H](NC(=O)[C@H](CC(=O)O)NC(=O)[C@H](CO)NC(=O)[C@@H](NC(=O)[C@H](Cc1ccccc1)NC(=O)[C@@H](NC(=O)CNC(=O)[C@H](CCC(=O)O)NC(=O)C(C)(C)NC(=O)[C@@H](N)Cc1cnc[nH]1)[C@@H](C)O)[C@@H](C)O)C(C)C)C(=O)N[C@@H](C)C(=O)N[C@@H](Cc1c[nH]c2ccccc12)C(=O)N[C@@H](CC(C)C)C(=O)N[C@H](C(=O)N[C@@H](CCCNC(=N)N)C(=O)NCC(=O)N[C@@H](CCCNC(=N)N)C(=O)NCC(=O)O)C(C)C` [semaglutide, [Aib8, Lys26 (γGlu-2xOEG-C18 acid), Arg34]-hGLP-1-(7-37)-OH]?
A: Mean plasma concentrations of semaglutide ([1]; Group 2, repeated SC 0.008 mg/kg every 3 days until Day 28, n=3, 0 h): 0 µg/mL; level at 6 h ([1]; minipig, plasma, Group 2, repeated SC 0.008 mg/kg every 3 days until Day 28, n=3, 6 h): 0.00964 µg/mL; level at 12 h ([1]; minipig, plasma, Group 2, repeated SC 0.008 mg/kg every 3 days until Day 28, n=3, 12 h): 0.0102 µg/mL; level at 24 h ([1]; minipig, plasma, Group 2, repeated SC 0.008 mg/kg every 3 days until Day 28, n=3, 24 h): 0.011 µg/mL; level at 48 h ([1]; minipig, plasma, Group 2, repeated SC 0.008 mg/kg every 3 days until Day 28, n=3, 48 h): 0.00967 µg/mL; level at 72 h ([1]; minipig, plasma, Group 2, repeated SC 0.008 mg/kg every 3 days until Day 28, n=3, 72 h): 0.00943 µg/mL; level at 84 h ([1]; minipig, plasma, Group 2, repeated SC 0.008 mg/kg every 3 days until Day 28, n=3, 84 h): 0.0177 µg/mL; level at 144 h ([1]; minipig, plasma, Group 2, repeated SC 0.008 mg/kg every 3 days until Day 28, n=3, 144 h): 0.0131 µg/mL; level at 156 h ([1]; minipig, plasma, Group 2, repeated SC 0.008 mg/kg every 3 days until Day 28, n=3, 156 h): 0.035 µg/mL; level at 216 h ([1]; minipig, plasma, Group 2, repeated SC 0.008 mg/kg every 3 days until Day 28, n=3, 216 h): 0.0273 µg/mL; level at 228 h ([1]; minipig, plasma, Group 2, repeated SC 0.008 mg/kg every 3 days until Day 28, n=3, 228 h): 0.0313 µg/mL; level at 288 h ([1]; minipig, plasma, Group 2, repeated SC 0.008 mg/kg every 3 days until Day 28, n=3, 288 h): 0.023 µg/mL; level at 300 h ([1]; minipig, plasma, Group 2, repeated SC 0.008 mg/kg every 3 days until Day 28, n=3, 300 h): 0.0213 µg/mL; level at 360 h ([1]; minipig, plasma, Group 2, repeated SC 0.008 mg/kg every 3 days until Day 28, n=3, 360 h): 0.034 µg/mL; level at 504 h ([1]; minipig, plasma, Group 2, repeated SC 0.008 mg/kg every 3 days until Day 28, n=3, 504 h (For G2)): 0.0273 µg/mL; level at 648 h ([1]; minipig, plasma, Group 2, repeated SC 0.008 mg/kg every 3 days until Day 28, n=3, 648 h (For G2)): 0.0234 µg/mL; level at 720 h ([1]; minipig, plasma, Group 2, repeated SC 0.008 mg/kg every 3 days until Day 28, n=3, 720 h (Day 30)): 0.027 µg/mL; course of plasma levels [2]: fluctuations with increase in plasma levels 3 h post injections; level at 24 h (in vivo; 0.06 mg/kg/day): 0.1 to 0.5 µg/mL; level at 24 h (in vivo; 0.4 mg/kg/day): 0.5 to 4.5 µg/mL; Plasma concentrations, individual animals ([3]; 0.06 mg/kg, Day 1 (3 h), 0.06 mg/kg): 0.23 µg/mL; Plasma concentrations, individual animals ([3]; 0.06 mg/kg, Day 7 (0 h), 0.06 mg/kg): 0.206 µg/mL; Plasma concentrations, individual animals ([3]; 0.06 mg/kg, Day 7 (3 h), 0.06 mg/kg): 0.855 µg/mL; Plasma concentrations, individual animals ([3]; 0.06 mg/kg, Day 21 (0 h), 0.06 mg/kg): 0.171 µg/mL and 0.269 µg/mL; Plasma concentrations, individual animals ([3]; 0.06 mg/kg, Day 21 (3 h), 0.06 mg/kg): 0.867 µg/mL; Plasma concentrations, individual animals ([3]; 0.06 mg/kg, Day 28 (0 h), 0.06 mg/kg): 0.32 µg/mL and 0.257 µg/mL; Plasma concentrations, individual animals ([3]; 0.06 mg/kg, Day 28 (3 h), 0.06 mg/kg): 0.474 µg/mL and 0.406 µg/mL; plasma levels at 3 hrs post injection ([3]; 0.06 mg/kg/day SC daily): increase in plasma levels; Plasma concentrations, individual animals ([3]; 0.4 mg/kg, Day 1 (3 h), 0.4 mg/kg): 1.31 µg/mL; Plasma concentrations, individual animals ([3]; 0.4 mg/kg, Day 14 (3 h), 0.4 mg/kg): 6.5 µg/mL; Plasma concentrations, individual animals ([3]; 0.4 mg/kg, Day 21 (0 h), 0.4 mg/kg): 2.55 µg/mL; Plasma concentrations, individual animals ([3]; 0.4 mg/kg, Day 28 (0 h), 0.4 mg/kg): 2.88 µg/mL and 1.46 µg/mL; Plasma concentrations, individual animals ([3]; 0.4 mg/kg, Day 28 (3 h), 0.4 mg/kg): 6.69 µg/mL; plasma levels 3 hrs post injection ([3]; 0.4 mg/kg/day SC daily): increase in plasma levels; dose dependence of the increase in plasma levels ([3]; between 0.06 and 0.4 mg/kg daily doses): dose proportional; Mortality (animal died) (db/db mice): Animal died
